Values joined by “and” are separate entries in the source; they are usually repeats but may differ in a detail not shown here. Equal entries are not always repeated. Where two headings read alike, the source gives them in different places.
Experiments:
[1] = target: CXCR4 (Homo sapiens, UniProt P61073); assay: In vitro binding assay
[2] = test system: carrageenan-induced paw edema; assay: Carrageenan-induced mouse paw edema model; assay type: in vivo

CXCR4, sequence (P61073 whole entry): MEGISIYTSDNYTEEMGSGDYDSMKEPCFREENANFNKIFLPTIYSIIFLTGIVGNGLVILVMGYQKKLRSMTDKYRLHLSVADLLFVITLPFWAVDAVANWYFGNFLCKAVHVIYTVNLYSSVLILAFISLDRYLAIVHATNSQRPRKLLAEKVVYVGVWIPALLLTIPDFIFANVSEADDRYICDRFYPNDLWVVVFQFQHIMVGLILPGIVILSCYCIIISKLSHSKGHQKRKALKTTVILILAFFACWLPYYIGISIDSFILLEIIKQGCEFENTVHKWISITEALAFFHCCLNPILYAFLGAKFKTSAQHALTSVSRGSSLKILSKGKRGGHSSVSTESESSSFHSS

EC50 ([1]; read-out: Binding Affinity (EC), EC = concentration at which the compound blocks > 50% of rhodamine Red X-TN14003, MDA-MB-231 cells, tested at 1, 10, 100, 1000 nM) | EC50 [1] | IC50 [1] | SMILES | Reduction of edema (paw) weight ([2]; 10 mg/kg i.p. once daily, 74 h after carrageenan, n = 5, versus untreated mice) | Histology / immunohistochemistry of paw tissue ([2]; 10 mg/kg i.p., H&E and anti-CXCR4 staining)
100 nM | – | – | NC(C(=O)NC1CCN(C(=O)CCn2ccc3ccncc32)CC1)c1ccccc1 (centres unmarked) [ZINC72372983] | – | –
– | 1 nM | 1.25 nM | N=C(N)NCCC[C@H](N)C(=O)NC1CCN(C(=O)CCn2ccc3ccncc32)CC1 [Z7R] | 50% and ~ 50% | observable decrease in the number of inflammatory cells

Reference: article PMC7422936 (European journal of medicinal chemistry, 2020)
